#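 Cultured in 96-well plates, cells were exposed to test compound for 48 hours across five concentrations. GI50 = concentration required for 50% inhibition of growth. TGI: total growth inhibition.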
# Legend:
# Assay in all cases: NCI anticancer screen, dose series, 48 h
# [1] = tested on: HL-60(TB) leukemia
# [2] = tested on: NCI-H23 lung
# [3] = tested on: MDA-MB-435
# [4] = tested on: RXF 393 renal
# [5] = tested on: K-562 leukemia
# [6] = tested on: CCRF-CEM leukemia
# [7] = tested on: NCI-H226 lung
# [8] = tested on: HCT-116 colon
# [9] = tested on: OVCAR-5 ovarian
# [10] = tested on: LOX IMVI melanoma
# [11] = tested on: HT29 colon
# [12] = tested on: MCF7 breast
# [13] = tested on: OVCAR-3 ovarian
# [14] = tested on: SF-295 CNS
# [15] = tested on: SN12C renal
# [16] = tested on: NCI/ADR-RES ovarian
# [17] = tested on: MALME-3M melanoma
# [18] = tested on: DU-145 prostate
# [19] = tested on: OVCAR-8 ovarian
# [20] = tested on: HCT-15 colon
# [21] = tested on: SF-539 CNS
# [22] = tested on: ACHN renal
# [23] = tested on: HCC-2998 colon
# [24] = tested on: SW-620 colon
# [25] = tested on: CAKI-1 renal
# [26] = tested on: SR leukemia
# [27] = tested on: HS 578T breast
# [28] = tested on: UACC-62 melanoma
# [29] = tested on: SNB-19 CNS
# [30] = tested on: IGROV1 ovarian
# [31] = tested on: M14 melanoma
# [32] = tested on: SK-MEL-28 melanoma
# [33] = tested on: SK-MEL-5 melanoma
# [34] = tested on: NCI-H460 lung
# [35] = tested on: NCI-H522 lung
# [36] = tested on: UACC-257 melanoma
# [37] = tested on: COLO 205 colon
# [38] = tested on: MOLT-4 leukemia
# [39] = tested on: T-47D breast
# [40] = tested on: TK-10 renal
# [41] = tested on: SK-MEL-2 melanoma
# [42] = tested on: A549 NSCLC
# [43] = tested on: OVCAR-4 ovarian
# [44] = tested on: SNB-75 CNS
# [45] = tested on: SF-268 CNS
# [46] = tested on: PC-3 prostate
# [47] = tested on: HOP-92 NSCLC
# [48] = tested on: MDA-MB-231 breast
# [49] = tested on: UO-31 renal
# [50] = tested on: HOP-62 NSCLC
# [51] = tested on: U251 CNS
# [52] = tested on: A498 renal
# [53] = tested on: KM12 colon
# [54] = tested on: RPMI-8226 leukemia
# [55] = tested on: EKVX NSCLC
smiles,measurement,setting,value
Nc1ncnc2c1ccn2-c1cccc(NC(=O)c2ccc(N3CCOCC3)c(C(F)(F)F)c2)c1,GI50,[1],3.17 µM
same,TGI,[1],8.07 µM
same,GI50,[2],2950 nM
same,TGI,[2],13.6 µM
same,GI50,[3],2640 nM
same,TGI,[3],13.2 µM
same,GI50,[4],2050 nM
same,TGI,[4],5.1 µM
same,GI50,[5],2410 nM
same,TGI,[5],16 µM
same,GI50,[6],2070 nM
same,TGI,[6],11.8 µM
same,GI50,[7],3.51 µM
same,TGI,[7],14.3 µM
same,GI50,[8],2710 nM
same,TGI,[8],10.3 µM
same,GI50,[9],3 µM
same,TGI,[9],21.1 µM
same,GI50,[10],3.1 µM
same,TGI,[10],12.7 µM
same,GI50,[11],3 µM
same,TGI,[11],12.3 µM
same,GI50,[12],3.44 µM
same,TGI,[12],14.2 µM
same,GI50,[13],3.04 µM
same,TGI,[13],11.4 µM
same,GI50,[14],2440 nM
same,TGI,[14],7.31 µM
same,GI50,[15],2900 nM
same,TGI,[15],9.64 µM
same,GI50,[16],2930 nM
same,TGI,[16],23.4 µM
same,GI50,[17],3.08 µM
same,TGI,[17],13.2 µM
same,GI50,[18],3.2 µM
same,TGI,[18],12.1 µM
same,GI50,[19],2910 nM
same,TGI,[19],9.62 µM
same,GI50,[20],2740 nM
same,TGI,[20],10.4 µM
same,GI50,[21],2390 nM
same,TGI,[21],15.4 µM
same,GI50,[22],2880 nM
same,TGI,[22],10.5 µM
same,GI50,[23],4.6 µM
same,TGI,[23],19.6 µM
same,GI50,[24],4.23 µM
same,TGI,[24],17.8 µM
same,GI50,[25],2690 nM
same,TGI,[25],8.73 µM
same,GI50,[26],3.38 µM
same,TGI,[26],20.7 µM
same,GI50,[27],1830 nM
same,TGI,[27],6.03 µM
same,GI50,[28],1990 nM
same,TGI,[28],5.78 µM
same,GI50,[29],3.96 µM
same,TGI,[29],13 µM
same,GI50,[30],3.83 µM
same,TGI,[30],33.2 µM
same,GI50,[31],3.33 µM
same,TGI,[31],10.6 µM
same,GI50,[32],4.76 µM
same,TGI,[32],23 µM
same,GI50,[33],2560 nM
same,TGI,[33],13.2 µM
same,GI50,[34],2920 nM
same,TGI,[34],9.33 µM
same,GI50,[35],1740 nM
same,TGI,[35],5.2 µM
same,GI50,[36],4.99 µM
same,TGI,[36],22.1 µM
same,GI50,[37],3.79 µM
same,TGI,[37],15.1 µM
same,GI50,[38],3.05 µM
same,TGI,[38],20.1 µM
same,GI50,[39],2660 nM
same,TGI,[39],7.92 µM
same,GI50,[40],1920 nM
same,TGI,[40],6.04 µM
same,GI50,[41],1830 nM
same,TGI,[41],5.1 µM
same,GI50,[42],3.41 µM
same,TGI,[42],15.2 µM
same,GI50,[43],3.57 µM
same,TGI,[43],12.5 µM
same,GI50,[44],1310 nM
same,TGI,[44],9.02 µM
same,GI50,[45],3.44 µM
same,TGI,[45],13.1 µM
same,GI50,[46],2510 nM
same,TGI,[46],10.4 µM
same,GI50,[47],1600 nM
same,TGI,[47],5.82 µM
same,GI50,[48],2470 nM
same,TGI,[48],10.9 µM
same,GI50,[49],2800 nM
same,TGI,[49],6.73 µM
same,GI50,[50],3.62 µM
same,TGI,[50],15.5 µM
same,GI50,[51],2410 nM
same,TGI,[51],6.44 µM
same,GI50,[52],3.06 µM
same,TGI,[52],12.8 µM
same,GI50,[53],2690 nM
same,TGI,[53],10.4 µM
same,GI50,[54],1390 nM
same,TGI,[54],4.04 µM
same,GI50,[55],3.2 µM
same,TGI,[55],22.1 µM

# From PubChem BioAssay (NCI)
